Source: ChEMBL document CHEMBL1833947, “Synthesis and biological investigation of potential atypical antipsychotics with a tropane core. Part 1” (Eur J Med Chem, 2011)

target: T1, 5-hydroxytryptamine receptor 1A (Rattus norvegicus, UniProt P19327); assay: Displacement of [3H]8OH-DPAT from 5HT1A in rat brain cerebral cortex after 15 mins by scintillation counting; format: tissue-based
T1 sequence (P19327 whole entry): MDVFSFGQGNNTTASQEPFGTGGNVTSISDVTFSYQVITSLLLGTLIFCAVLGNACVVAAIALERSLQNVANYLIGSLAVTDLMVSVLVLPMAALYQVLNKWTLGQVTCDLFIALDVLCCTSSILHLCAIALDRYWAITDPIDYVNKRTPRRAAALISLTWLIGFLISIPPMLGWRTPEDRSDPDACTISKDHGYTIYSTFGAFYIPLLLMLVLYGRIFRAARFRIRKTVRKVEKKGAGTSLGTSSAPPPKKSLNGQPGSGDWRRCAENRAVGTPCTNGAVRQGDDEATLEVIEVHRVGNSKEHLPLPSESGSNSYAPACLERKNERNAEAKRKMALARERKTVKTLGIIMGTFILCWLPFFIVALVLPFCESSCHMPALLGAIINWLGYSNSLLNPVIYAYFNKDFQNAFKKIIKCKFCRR

Compared with `COc1cccc(C(=O)N[C@@H]2CC3CC[C@H](C2)N3Cc2ccncc2)c1OC` (single isomer, unassigned), `COc1cccc(C(=O)N[C@@H]2CC3CC[C@H](C2)N3Cc2ccco2)c1OC` (single isomer, unassigned; 14a) is higher in Ki: 2500 nM for the first, greater than 100000 nM for the second. The first binds more tightly here.

Compared with `COc1ccc(OC)c(C(=O)N[C@H]2CC3CC[C@H](C2)N3Cc2ccco2)c1` (single isomer, unassigned), `COc1ccc(F)cc1C(=O)N[C@H]1C[C@H]2CC[C@@H](C1)N2Cc1ccco1` (stereo in doubt; 14b) is higher in Ki: 9600 nM for the first, greater than 100000 nM for the second. The first binds more tightly here.

`COc1ccc(Cl)cc1C(=O)N[C@@H]1CC2CC[C@H](C1)N2CC1CCCO1` (single isomer, unassigned) and `O=C(N[C@@H]1CC2CC[C@H](C1)N2CC1CCCO1)c1cccc2ccccc12` (single isomer, unassigned) are within 1.5-fold of each other in Ki: 4600 nM for the first, 3100 nM for the second.

Compound `COc1cc(C(=O)N[C@H]2CC3CC[C@H](C2)N3Cc2ccco2)cc(OC)c1OC` (single isomer, unassigned) has a Ki of 2900 nM.

target: D(2) dopamine receptor (Rattus norvegicus, UniProt P61169); assay: Displacement of [3H]spiperone from dopamine D2 receptor in rat striatum tissue after 20 mins by scintillation counting; format: tissue-based
Sequence (P61169 whole entry): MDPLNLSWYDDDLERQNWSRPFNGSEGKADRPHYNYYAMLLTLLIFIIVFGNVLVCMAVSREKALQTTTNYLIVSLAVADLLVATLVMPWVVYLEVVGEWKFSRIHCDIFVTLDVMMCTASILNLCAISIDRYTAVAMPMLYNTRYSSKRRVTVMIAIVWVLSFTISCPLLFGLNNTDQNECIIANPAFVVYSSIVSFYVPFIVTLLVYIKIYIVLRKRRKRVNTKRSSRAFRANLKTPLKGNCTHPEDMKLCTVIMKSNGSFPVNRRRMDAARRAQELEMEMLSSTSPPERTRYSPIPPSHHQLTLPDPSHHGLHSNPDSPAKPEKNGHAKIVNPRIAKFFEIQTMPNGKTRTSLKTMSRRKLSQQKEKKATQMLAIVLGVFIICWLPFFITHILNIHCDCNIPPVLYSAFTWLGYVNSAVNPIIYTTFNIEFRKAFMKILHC

Compared with `COc1cccc(C(=O)N[C@@H]2CC3CC[C@H](C2)N3Cc2ccncc2)c1OC` (single isomer, unassigned), `COc1cccc(C(=O)N[C@@H]2CC3CC[C@H](C2)N3Cc2ccco2)c1OC` (single isomer, unassigned; 14a) is higher in Ki: 28.3 nM for the first, greater than 100000 nM for the second. The first binds more tightly here.

Compared with `COc1ccc(OC)c(C(=O)N[C@H]2CC3CC[C@H](C2)N3Cc2ccco2)c1` (single isomer, unassigned), `COc1ccc(F)cc1C(=O)N[C@H]1C[C@H]2CC[C@@H](C1)N2Cc1ccco1` (stereo in doubt; 14b) is 40-fold higher in Ki: 1100 nM for the first, 44000 nM for the second.

Compared with `COc1ccc(Cl)cc1C(=O)N[C@@H]1CC2CC[C@H](C1)N2CC1CCCO1` (single isomer, unassigned), `O=C(N[C@@H]1CC2CC[C@H](C1)N2CC1CCCO1)c1cccc2ccccc12` (single isomer, unassigned) is 1.7-fold higher in Ki: 2400 nM for the first, 4000 nM for the second. The first binds more tightly here.

For `COc1cc(C(=O)N[C@H]2CC3CC[C@H](C2)N3Cc2ccco2)cc(OC)c1OC` (single isomer, unassigned), the Ki was 52200 nM.

target: 5-hydroxytryptamine receptor 2A (Rattus norvegicus, UniProt P14842); assay: Displacement of [3H]ketanserin from 5HT2A in rat brain cerebral cortex after 20 mins by scintillation counting; format: tissue-based
Sequence (P14842 whole entry): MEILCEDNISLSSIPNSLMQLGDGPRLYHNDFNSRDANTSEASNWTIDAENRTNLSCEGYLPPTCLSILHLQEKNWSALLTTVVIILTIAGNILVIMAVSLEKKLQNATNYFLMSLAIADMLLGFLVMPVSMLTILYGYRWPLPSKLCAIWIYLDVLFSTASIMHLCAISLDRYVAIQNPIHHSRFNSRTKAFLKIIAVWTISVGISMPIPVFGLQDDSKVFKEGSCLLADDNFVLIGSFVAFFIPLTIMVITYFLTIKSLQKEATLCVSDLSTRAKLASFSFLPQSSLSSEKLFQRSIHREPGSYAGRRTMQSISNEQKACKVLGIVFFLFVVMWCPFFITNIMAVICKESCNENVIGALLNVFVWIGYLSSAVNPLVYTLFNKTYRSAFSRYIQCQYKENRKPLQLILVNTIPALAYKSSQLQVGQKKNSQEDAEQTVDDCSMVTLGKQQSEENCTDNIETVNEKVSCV

First: COc1cccc(C(=O)N[C@@H]2CC3CC[C@H](C2)N3Cc2ccncc2)c1OC (single isomer, unassigned)
Second: COc1cccc(C(=O)N[C@@H]2CC3CC[C@H](C2)N3Cc2ccco2)c1OC (single isomer, unassigned; 14a)
The Ki of the first is 3.6-fold lower: 700 nM for the first, 2500 nM for the second.

Compared with `COc1ccc(OC)c(C(=O)N[C@H]2CC3CC[C@H](C2)N3Cc2ccco2)c1` (single isomer, unassigned), `COc1ccc(F)cc1C(=O)N[C@H]1C[C@H]2CC[C@@H](C1)N2Cc1ccco1` (stereo in doubt; 14b) is 6.4-fold higher in Ki: 1100 nM for the first, 7000 nM for the second. The first binds more tightly here.

Compared with `COc1ccc(Cl)cc1C(=O)N[C@@H]1CC2CC[C@H](C1)N2CC1CCCO1` (single isomer, unassigned), `O=C(N[C@@H]1CC2CC[C@H](C1)N2CC1CCCO1)c1cccc2ccccc12` (single isomer, unassigned) is 3.3-fold higher in Ki: 120 nM for the first, 394 nM for the second.

`COc1cc(C(=O)N[C@H]2CC3CC[C@H](C2)N3Cc2ccco2)cc(OC)c1OC` (single isomer, unassigned) showed a Ki of 1100 nM.
